Results from patent US20230331685A1, “HERBICIDAL COMPOUNDS AND METHODS OF USE THEREOF” (AG Plenus Ltd, priority 2020, published 2023).

How the values were obtained:
Type in all cases: in vivo
[1] = tested on: monocot and eudicot weeds species; assay: In-planta LTP weed panel, overall assessment; details: applied post-emergence; both monocot and dicot species
Matricaria chamomilla = assay: LTP post-emergence greenhouse test; details: Dosage 2000 g/ha
Abutilon theophrasti = assay: LTP post-emergence greenhouse test; details: Dosage 2000 g/ha
Echinochloa crus-galli = assay: LTP post-emergence greenhouse test; details: Dosage 2000 g/ha
Chenopodium album = assay: LTP post-emergence greenhouse test; details: Dosage 2000 g/ha
Conyza canadensis = assay: LTP post-emergence greenhouse test; details: Dosage 2000 g/ha
Solanum nigrum = assay: LTP post-emergence greenhouse test; details: Dosage 2000 g/ha
Amaranthus tuberculatus = assay: LTP post-emergence greenhouse test; details: Dosage 2000 g/ha
Method: A basic panel of eight weed species (Table 3) sowed in 4×4×7 cm plastic pots containing a garden mix (klasmann). Each specie was sowed in a separate pot. In each pot, 10-15 seeds were sowed according to the specie viability. Timing of application determined at a 1-2 true leaf stage. The plants grew for 30 days in a controlled greenhouse (26±2° C. day, 20±2° C. night). Hood irrigation (tap water+Shefer 5:3:8 8 mM) was given at a 50% water content by weight. Two days before application, the tested plants thinned down to three plants per pot. Compounds were soluble in water (DDW), and commercial herbicide control was soluble in formulation B (Table 4). Before application, 1% (v/v) crop oil and 0.02% (v/v) surfactant (Tergitol™ 15-S-7) were added to the solution. […] Plants were evaluated at 3 time points (4, 8, 12 days after application (DAA)). At each time point, visual phenotyping was recorded using a scale of 0-6 (0: no visible effect, 6: maximum effect). […]
Post-emergence advanced wide panel experiment included 24 weed species (Table 5). […] Visual phenotyping was recorded at 4, 11, 17 and 20 DAA using a scale of 0-6 (0: no visible effect, 6: maximum effect). […] Statistical analysis for visual phenotyping determined by a median value of ≥3.5 and Fisher test (pval≤0.05). Statistical analysis for dry weight determined by % inhibition ≥50 and T test (pval≤0.05), as well as Wilcox test (pval≤0.05).

Ambrosia artemisiifolia = assay: LTP post-emergence greenhouse test; details: Dosage 2000 g/ha
Eragrostis teff = assay: HTPS pre-emergence application on monocot model plant
Method: The plates were placed in a controlled greenhouse in a random order inside a bath which allows flooding irrigation with tap water supplemented with a fertilizer. Applied compounds were dissolved into a final solution of 50% acetone, 49.9% DDW, 0.1% tween-20. A 96 well plate was used as a stock plate for preparing application solutions for 8 repeats. Each row contained different concentrations per chemical. Maximal concentration for application was 1.5 Kg/Ha and dilution factor is 2.5. Chemical application was performed one day after thinning out in a chemical hood. […] applied on first two true leaves in each well using 12 channel pipettes. Data collection: RGB (red, green, blue) data for green area per well was documented using camera. Data is collected at a few time points during the experiment: one day after thinning and before chemical application, two-, six- or nine-days post application. During the last two documentations, visual phenotyping was performed. Data analysis: Given RGB results and visual phenotype scores, a student t-test conducted to compare between treatment and control performance for continuous data (RGB) and Fisher exact test to analyze the non-continuous data (phenotypic scores). Dose-Response curves are generated for each treatment to infer ED50 and max. inhibition parameters, using treatment's log concentration range as the […] and normalized green area. […] Plate imaging performed at 11 and 18 DAA. RGB data for green area per well was documented and used to extract % inhibition. Dose-Response curves were built for each treatment to infer EC50, EC75 and EC90 parameters, using treatment's log concentration range as the independent variable and normalized green area as the dependent variable. Treatments were compared to controls performance given RGB results and using student's t-test (p-val≤0.05). Compounds 104-154 were applied in either or both pre- and post-emergence mode to either or both monocot and dicot model plants, following the methods described above. The compounds were applied as a gradient of concentrations as listed above, from which the ED50 was calculated.

Setaria viridis = assay: LTP post-emergence greenhouse test; details: Dosage 2000 g/ha
Lolium perenne = assay: LTP post-emergence greenhouse test; details: Dosage 2000 g/ha
Echinochloa colon = assay: LTP post-emergence greenhouse test; details: Dosage 2000 g/ha
Phalaris minor = assay: LTP post-emergence greenhouse test; details: Dosage 2000 g/ha
Arabidopsis thaliana = assay: HTPS post-emergence application on miniature dicot model plant; details: Arabidopsis thaliana, post-emergence, green area (RGB), read-out: Max Inhibition (%)
Method: The plates were placed in a controlled greenhouse in a random order inside a bath which allows flooding irrigation with tap water supplemented with a fertilizer. Applied compounds were dissolved into a final solution of 50% acetone, 49.9% DDW, 0.1% tween-20. A 96 well plate was used as a stock plate for preparing application solutions for 8 repeats. Each row contained different concentrations per chemical. Maximal concentration for application was 1.5 Kg/Ha and dilution factor is 2.5. Chemical application was performed one day after thinning out in a chemical hood. […] applied on first two true leaves in each well using 12 channel pipettes. Data collection: RGB (red, green, blue) data for green area per well was documented using camera. Data is collected at a few time points during the experiment: one day after thinning and before chemical application, two-, six- or nine-days post application. During the last two documentations, visual phenotyping was performed. Data analysis: Given RGB results and visual phenotype scores, a student t-test conducted to compare between treatment and control performance for continuous data (RGB) and Fisher exact test to analyze the non-continuous data (phenotypic scores). Dose-Response curves are generated for each treatment to infer ED50 and max. inhibition parameters, using treatment's log concentration range as the […] variable and normalized green area. Plate imaging performed at 11 and 18 DAA. RGB data for green area per well was documented and used to extract % inhibition. Dose-Response curves were built for each treatment to infer EC50, EC75 and EC90 parameters, using treatment's log concentration range as the independent variable and normalized green area as the dependent variable. Treatments were compared to controls performance given RGB results and using student's t-test (p-val≤0.05). Compounds 104-154 were applied in either or both pre- and post-emergence mode to either or both monocot and dicot model plants, following the methods described above. The compounds were applied as a gradient of concentrations as listed above, from which the ED50 was calculated.

Lolium multiflorum = assay: LTP post-emergence greenhouse test; details: Dosage 2000 g/ha
Stellaria media = assay: LTP post-emergence greenhouse test; details: Dosage 2000 g/ha
Poa annua = assay: LTP post-emergence greenhouse test; details: Dosage 2000 g/ha
Digitaria sanguinalis = assay: LTP post-emergence greenhouse test; details: Dosage 2000 g/ha
Alopecurus myosuroides = assay: LTP post-emergence greenhouse test; details: Dosage 2000 g/ha
Galium aparine = assay: LTP post-emergence greenhouse test; details: Dosage 2000 g/ha
Amaranthus palmeri = assay: LTP post-emergence greenhouse test; details: Dosage 2000 g/ha

For `NC1CCCC(CCCC(=O)O)C1` (centres unmarked) [Compound 145], which “activity (in words)” value [1] is on record?
The value was “good to moderate activity”.

And the “Herbicidal activity (In-planta), LTP-Post emergence, Matricaria chamomilla” value (Matricaria chamomilla)?
The value was 0.

What about the “Herbicidal activity (In-planta), LTP-Post emergence, Abutilon theophrasti” value (Abutilon theophrasti) of the same compound?
The value was 20-40.

And the “Herbicidal activity (In-planta), LTP-Post emergence, Echinochloa crus-galli” value (Echinochloa crus-galli)?
Its value is 60-80.

And the “Herbicidal activity (In-planta), LTP-Post emergence, Chenopodium album” value (Chenopodium album)?
The value was 40-60.

What about the “Herbicidal activity (In-planta), LTP-Post emergence, Conyza canadensis” value (Conyza canadensis) of the same compound?
The value was 40-60.

And the “Herbicidal activity (In-planta), LTP-Post emergence, Solanum nigrum” value (Solanum nigrum)?
Its value is 40-60.

What about the “Herbicidal activity (In-planta), LTP-Post emergence, Amaranthus tuberculatus” value (Amaranthus tuberculatus) of the same compound?
Its value is 40-60.

What about the “Herbicidal activity (In-planta), LTP-Post emergence, Ambrosia artemisiifolia” value (Ambrosia artemisiifolia) of the same compound?
The value was 20-40.

What about the “ED50 (g/ha)” value (Eragrostis teff; dose-response of normalized green area) of the same compound?
Its value is 16.8 g/ha.

And the “Max Inhibition (%)” value (Eragrostis teff; green area (RGB))?
Its value is 100%.

And the “Herbicidal activity (In-planta), LTP-Post emergence, Setaria viridis” value (Setaria viridis)?
The value was 60.

And the “Herbicidal activity (In-planta), LTP-Post emergence, Lolium perenne” value (Lolium perenne)?
Its value is 40-60.

What about the “Herbicidal activity (In-planta), LTP-Post emergence, Echinochloa colon” value (Echinochloa colon) of the same compound?
The value was 20-40.

What about the “Herbicidal activity (In-planta), LTP-Post emergence, Phalaris minor” value (Phalaris minor) of the same compound?
Its value is 0.

What about the Emax (Arabidopsis thaliana) of the same compound?
The Emax was 100%.

What about the “Herbicidal activity (In-planta), LTP-Post emergence, Lolium multiflorum” value (Lolium multiflorum) of the same compound?
The value was 20-40.

And the “Herbicidal activity (In-planta), LTP-Post emergence, Stellaria media” value (Stellaria media)?
The value was 20-40.

What about the “Herbicidal activity (In-planta), LTP-Post emergence, Poa annua” value (Poa annua) of the same compound?
The value was 20-40.

And the “Herbicidal activity (In-planta), LTP-Post emergence, Digitaria sanguinalis” value (Digitaria sanguinalis)?
Its value is 60-80.

And the “Herbicidal activity (In-planta), LTP-Post emergence, Alopecurus myosuroides” value (Alopecurus myosuroides)?
Its value is 60-80.

What about the “Herbicidal activity (In-planta), LTP-Post emergence, Galium aparine” value (Galium aparine) of the same compound?
The value was 40-60.

And the “Herbicidal activity (In-planta), LTP-Post emergence, Amaranthus palmeri” value (Amaranthus palmeri)?
The value was 20-40.
